Assay results: patent publication US9452169B2, “Substituted diketopiperazines and their use as oxytocin antagonists” (Glaxo Group Limited, priority 2003, dated 2016)

Test system: rats
Conditions: rat, in vivo, 30 mg/kg

SMILES: CC[C@H](C)[C@@H]1C(=O)N[C@H](C2Cc3ccccc3C2)C(=O)N1[C@@H](C(=O)N1CCOCC1)c1coc(C)n1 [Example 1, (3R,6R)-3-(2,3-dihydro-1H-inden-2-yl)-1-[(1R)-1-(2-methyl-1,3-oxazol-4-yl)-2-(4-morpholinyl)-2-oxoethyl]-6-[(1S)-1-methylpropyl]-2,5-piperazinedione]
- adverse toxicological effects: no adverse toxicological effects were observed
